The results in this text go back to paper PMC8037650, “Biochemical Characterization of Recombinant UDPG-Dependent IAA Glucosyltransferase from Maize (Zea mays)” (International Journal of Molecular Sciences, 2021).

Usually Ki stands for a measure of affinity in units of concentration, obtained from inhibition or displacement.

Assay [1] concerns the target T1, IAGlc synthase (Zea mays, UniProt Q41819).
T1 construct: gene IAGLU; recombinant, N-terminally His-tagged, expressed in E. coli
T1 sequence (Q41819 1-471): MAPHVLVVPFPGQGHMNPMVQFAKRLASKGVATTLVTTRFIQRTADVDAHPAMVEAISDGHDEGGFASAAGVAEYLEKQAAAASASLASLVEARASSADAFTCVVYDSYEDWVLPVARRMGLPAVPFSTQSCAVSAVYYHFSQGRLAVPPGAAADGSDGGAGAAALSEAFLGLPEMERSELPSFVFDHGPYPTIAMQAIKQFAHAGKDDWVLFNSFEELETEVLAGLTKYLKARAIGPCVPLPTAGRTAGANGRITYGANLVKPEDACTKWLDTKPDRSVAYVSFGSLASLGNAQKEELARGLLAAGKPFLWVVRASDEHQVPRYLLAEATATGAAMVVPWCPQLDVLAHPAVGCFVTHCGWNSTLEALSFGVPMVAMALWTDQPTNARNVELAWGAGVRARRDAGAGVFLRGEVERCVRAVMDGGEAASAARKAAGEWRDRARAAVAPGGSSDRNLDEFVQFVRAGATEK
Briefly: coupled spectrophotometric assay, […] acceptor (relative activity). It is filed as biochemical.

For assay [2], the target named is T1, IAGlc synthase. Description: […]IAA glucosylation TLC radioassay, Dixon plot. It is filed as biochemical.

As to `O=C(O)CCCc1c[nH]c2ccccc12` [IBA, indole-3-butyric acid], the “Relative Activity (%)” value at IAGlc synthase [1] is recorded as 66%.

Turning to `O=C(O)COc1ccc(Cl)cc1Cl` [2,4-D, 2,4-dichlorophenoxyacetic acid], the Ki at IAGlc synthase [2] was 117 ± 10 µM.

As to `O=C(O)CCc1c[nH]c2ccccc12` [IPA, indole-3-propionic acid], the “Relative Activity (%)” value on IAGlc synthase [1] is reported as 49.7%.
